Assay results: US11406714B2, “Telodendrimers and nanocarriers and methods of using same” (The Research Foundation for the State University of New York, priority 2013, dated 2022)
“Also recorded” adds a separate entry of the source.

What was measured:
[1] = Maximum tolerated dose (MTD) study; type: in vivo
Protocol: FIG. 24. An example of body weight lost for an animal treated with DOX loaded PEG^5kCA4-L-Rh4 at different dosage level, as well as the empty micelles for the test of the MTD studies. Among, the 15 mg/Kg dosage was repeated at day 0 and day 4 to study the MTD of multiple dosages.

[2] = test system: Raji lymphoma xenograft; assay: In vivo cancer treatment; parameters: species or system nude mice; settings: 10 mg/kg, days 0, 4 and 8, intravenous
Protocol: (§1) Female athymic nude mice (Nu/Nu strain), 6-8 weeks age, were purchased from Harlan. All animals were kept under pathogen-free conditions according to AAALAC (Association for Assessment and Accreditation of Laboratory Animal Care) guidelines and were allowed to acclimatize for at least 4 days prior to any experiments. All animal experiments were performed in compliance with institutional guidelines and according to protocol approved by the Committee for the Humane Use of Animals of State University of New York Upstate Medical University. Subcutaneous tumor xenograft mouse models were established by injecting 1×10^7 HT-29 or raji cancer cells in a 100 μL of mixture of PBS and Matrigel (1:1 v/v) subcutaneously at the right flank in female nude mice.
Subcutaneous Raji lymphoma xenograft mouse model was used to evaluate the therapeutic efficacy of different formulations of DOX. […] Tumor sizes were measured with a digital caliper twice per week. Tumor volume was calculated by the formula (L×W^2)/2, where L is the longest, and W is the shortest in tumor diameters (mm). To compare between groups, relative tumor volume (RTV) was calculated at each measurement time point (where RTV equals the tumor volume at given time point divided by the tumor volume prior to initial treatment). […]

[3] = test system: HT-29 colon cancer xenografts; assay: In vivo and ex vivo NIRF imaging and biodistribution; parameters: species or system nude mice
Protocol: as §1
(§2) Nude mice with subcutaneous tumors of an approximate 8 to 10 mm in diameter were subjected to in vivo NIRF optical imaging. At different time points post-injection of DiD and chemodrug (PTX or DOX or GA) co-loaded micelles (the mass ratio of DiD and PTX within nanocarrier was […]), mice were scanned using a IVIS-200 small animal imager at cy5.5 excitation and emission channels. The mice were anaesthetized by isofluorane gas before and during each imaging. After in vivo imaging, animals were euthanized by CO2 overdose after the last in vivo imaging. Tumors and major organs were excised and imaged with the IVIS-200 small animal imager.

[4] = test system: Raji lymphoma xenograft; assay: as above; parameters: species or system nude mice; settings: tail vein injection
Protocol: as §1, §2

Row | SMILES | MTD of free DOX [1] [mg/kg] | Tumor response [2] | Ex vivo biodistribution of fluorescence signal ([3]; after last in vivo imaging) | In vivo tumor targeting (fluorescence imaging) ([3]; tail vein injection, DiD signal) | Biodistribution of fluorescence signal [4]
1 | COc1cccc2c1C(=O)c1c(O)c3c(c(O)c1C2=O)C[C@@](O)(C(=O)CO)C[C@@H]3O[C@H]1C[C@H](N)[C@H](O)[C@H](C)O1 [DOX, Doxorubicin] | 10 | the cancer progression was slowed down |  |  | 
2 | CCCCCCCCCCCCCCCCCCN1C(=CC=CC=CC2=[N+](CCCCCCCCCCCCCCCCCC)c3ccccc3C2(C)C)C(C)(C)c2ccccc21.[O-][Cl+3]([O-])([O-])[O-] [DiD, 1,1′-dioctadecyl-3,3,3′,3′-tetramethylindodicarbocyanine perchlorate] |  |  | high uptake in liver, lung and spleen and low uptake in tumor; also recorded: high uptake of fluorescent signal in spleen and lung | nonspecific binding and low tumor uptake | high fluorescent uptake in the liver, lung and spleen and weak signal in the tumor
